Here are results for 17 compounds from US7772183B2 (Bristol-Myers Squibb Company, priority 2005, dated 2010).

Each structure is given as a SMILES string. Some results are limits rather than exact numbers.

For series [1], the system named is HCV replicon in HUH-7 cells. Description: HCV replicon FRET assay. It counts as cell-based, Hepatitis C virus (strain 1b). To be noted: Hepatitis C virus, Huh-7; HCV replicon, for compounds tested; read-out: EC50 Range. The procedure, abridged: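 HUH-7 cells stably carrying a genotype 1b subgenomic HCV replicon (NS3–NS5B) treated with compound for 4 days at 37° C, 0.5% DMSO final. Cytotoxicity (CC50) read by alamar Blue; cells then lysed with 10 μM FRET HCV protease peptide substrate and kinetically read (340/490 nm) for EC50.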

The target of series [2] is T1, HCV NS3/4A protease complex, BMS strain (UniProt P27958, species not given/STRAIN_BMS).
T1 construct: said of H77 and J4L6S; fused on or other part: A three-lysine solubilising tail at the C-terminus of NS4A and a His tag (pET21b, Ni-NTA purification)
Kind of series: FRET peptide assay to monitor HCV NS3/4A proteolytic activity (BMS strain). The series is classed as biochemical, Hepatitis C virus (genotype 1a). The note with it: NS3/4A BMS strain; read-out: IC50 Range. The procedure, abridged: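 Recombinant NS3/4A complexes (aa 1027–1711) from H77 (1a) and J4L6S (1b) carried a three-lysine tail, C1711G and C1454S. They were expressed in E. coli BL21(DE3) (0.5 mM IPTG, 22 h, 20 °C), then purified by Ni-NTA and Superdex-S200 to >90% purity. The BMS strain was a genotype 1a clone from patient serum.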

The term melting point denotes the temperature of the solid-liquid transition. The EC50 is the concentration at which the effect is half-maximal. Broadly, the IC50 is the concentration that inhibits the measured activity by half.

T1 sequence (P27958 1027-1657, change not shown, one chain of several): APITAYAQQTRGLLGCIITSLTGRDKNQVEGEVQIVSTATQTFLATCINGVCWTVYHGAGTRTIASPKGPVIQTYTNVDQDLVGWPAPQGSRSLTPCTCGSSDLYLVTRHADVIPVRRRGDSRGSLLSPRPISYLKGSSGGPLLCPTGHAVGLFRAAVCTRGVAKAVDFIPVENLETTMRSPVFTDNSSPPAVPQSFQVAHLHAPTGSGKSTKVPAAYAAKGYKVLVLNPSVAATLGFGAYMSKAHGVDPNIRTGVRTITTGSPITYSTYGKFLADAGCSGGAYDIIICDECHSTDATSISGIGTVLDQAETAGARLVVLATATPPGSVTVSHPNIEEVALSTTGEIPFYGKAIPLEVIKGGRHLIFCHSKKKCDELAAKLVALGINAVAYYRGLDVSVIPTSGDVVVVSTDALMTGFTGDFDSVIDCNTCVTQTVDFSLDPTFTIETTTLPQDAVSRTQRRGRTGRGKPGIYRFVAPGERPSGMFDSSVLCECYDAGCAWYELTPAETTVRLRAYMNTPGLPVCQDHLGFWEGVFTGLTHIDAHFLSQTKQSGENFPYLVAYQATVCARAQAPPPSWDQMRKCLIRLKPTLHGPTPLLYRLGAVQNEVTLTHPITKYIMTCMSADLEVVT

The compound `CC(C)(C)OC(=O)N[C@H]1CCCCC/C=C\[C@@H]2C[C@@]2(C(=O)NS(=O)(=O)C2CC2)NC(=O)[C@@H]2C[C@@H](OC(=O)c3ccc4ccccc4c3)CN2C1=O` [Compound 18, 18-(2-naphthoyloxy)-14-tert-butoxycarbonylamino-4-cyclopropylsulfonylaminocarbonyl-2,15-dioxo-3,16-diazatricyclo-[14.3.0.0^4,6]-nonadec-7-ene] displayed a melting point of 156 to 158 °C. For the same compound, in series [1], the EC50 was less than 100 nM. For the same compound, the IC50 in series [2] was less than 100 nM.

`CC(C)(C)OC(=O)N[C@H]1CCCCC/C=C\[C@@H]2C[C@@]2(C(=O)NS(=O)(=O)C2CC2)NC(=O)[C@@H]2C[C@@H](OC(=O)c3ccc(-c4ccccc4)cc3)CN2C1=O` [Compound 19, 18-(4-biphenylcarbonyloxy)-14-tert-butoxycarbonylamino-4-cyclopropylsulfonylaminocarbonyl-2,15-dioxo-3,16-diazatricyclo-[14.3.0.0^4,6]-nonadec-7-ene]: the melting point was in the range of 162 to 164 °C. In addition, the EC50 in series [1] is less than 100 nM. Moreover, the IC50 in series [2] is less than 100 nM.

`COc1ccc(C(=O)O[C@@H]2C[C@H]3C(=O)N[C@]4(C(=O)NS(=O)(=O)C5CC5)C[C@H]4/C=C\CCCCC[C@H](NC(=O)OC(C)(C)C)C(=O)N3C2)cc1` [Compound 20, 18-(4-methoxybenzoyloxy)-14-tert-butoxycarbonylamino-4-cyclopropylsulfonylaminocarbonyl-2,15-dioxo-3,16-diazatricyclo-[14.3.0.0^4,6]-nonadec-7-ene]: the melting point lay within 151 to 153 °C. Besides, in series [1], the EC50 is less than 100 nM. In addition, the 50% inhibitory concentration (IC50) in series [2] was less than 100 nM.

`CC(C)(C)OC(=O)N[C@H]1CCCCC/C=C\[C@@H]2C[C@@]2(C(=O)NS(=O)(=O)C2CC2)NC(=O)[C@@H]2C[C@@H](OC(=O)c3ccc(Cl)cc3)CN2C1=O` [Compound 21, 18-(4-chlorobenzoyloxy)-14-tert-butoxycarbonylamino-4-cyclopropylsulfonylaminocarbonyl-2,15-dioxo-3,16-diazatricyclo-[14.3.0.0^4,6]-nonadec-7-ene]: the melting point was in the range of 143 to 145 °C. Moreover, in series [1], the concentration giving a half-maximal response (EC50) is less than 100 nM. The 50% inhibitory concentration (IC50) in series [2] was less than 100 nM.

Regarding `CC(C)(C)OC(=O)N[C@H]1CCCCC/C=C\[C@@H]2C[C@@]2(C(=O)NS(=O)(=O)C2CC2)NC(=O)[C@@H]2C[C@@H](OC(=O)c3cccc(Cl)c3)CN2C1=O` [Compound 22, 18-(3-chorobenzoyloxy)-14-tert-butoxycarbonylamino-4-cyclopropylsulfonylaminocarbonyl-2,15-dioxo-3,16-diazatricyclo-[14.3.0.0^4,6]-nonadec-7-ene], the melting point fell in the range of 154 to 156 °C. Further, in series [1], the EC50 is less than 100 nM. In addition, the IC50 in series [2] was less than 100 nM.

`CC(C)(C)OC(=O)N[C@H]1CCCCC/C=C\[C@@H]2C[C@@]2(C(=O)NS(=O)(=O)C2CC2)NC(=O)[C@@H]2C[C@@H](OC(=O)c3ccc4nccnc4c3)CN2C1=O` [Compound 24, 18-(6-quinoxalinecarbonyloxy)-14-tert-butoxycarbonylamino-4-cyclopropylsulfonylaminocarbonyl-2,15-dioxo-3,16-diazatricyclo-[14.3.0.0^4,6]-nonadec-7-ene] returned a melting point of 158 to 160 °C. For the same compound, the EC50 in series [1] is less than 100 nM. Besides, the IC50 in series [2] was less than 100 nM.

Regarding `CC(C)(C)OC(=O)N[C@H]1CCCCC/C=C\[C@@H]2C[C@@]2(C(=O)NS(=O)(=O)C2CC2)NC(=O)[C@@H]2C[C@@H](OC(=O)c3ccc4c(c3)OCCO4)CN2C1=O` [Compound 25, 18-(2,3-dihydro-1,4-benzodioxine-6-carbonyloxy)-14-tert-butoxycarbonylamino-4-cyclopropylsulfonylaminocarbonyl-2,15-dioxo-3,16-diazatricyclo-[14.3.0.0^4,6]-nonadec-7-ene], the melting point lay within 199 to 201 °C. Besides, the EC50 in series [1] is less than 100 nM. Moreover, the IC50 in series [2] was less than 100 nM.

Consider `CC(C)(C)OC(=O)N[C@H]1CCCCC/C=C\[C@@H]2C[C@@]2(C(=O)NS(=O)(=O)C2CC2)NC(=O)[C@@H]2C[C@@H](OC(=O)c3cnccn3)CN2C1=O` [Compound 27, 18-(pyrazinecarbonyloxy)-14-tert-butoxycarbonylamino-4-cyclopropylsulfonylaminocarbonyl-2,15-dioxo-3,16-diazatricyclo-[14.3.0.0^4,6]-nonadec-7-ene], for which the melting point was in the range of 150 to 152 °C. For the same compound, in series [1], the EC50 was more than 1000 nM. The IC50 in series [2] is less than 100 nM.

In turn, `CC(C)(C)OC(=O)N[C@H]1CCCCC/C=C\[C@@H]2C[C@@]2(C(=O)NS(=O)(=O)C2CC2)NC(=O)[C@@H]2C[C@@H](OC(=O)c3ccccn3)CN2C1=O` [Compound 28, 18-(picolinoyloxy)-14-tert-butoxycarbonylamino-4-cyclopropylsulfonylaminocarbonyl-2,15-dioxo-3,16-diazatricyclo-[14.3.0.0^4,6]-nonadec-7-ene] came in with a melting point of 164 to 166 °C. Also, the EC50 in series [1] is more than 1000 nM. Also, the IC50 in series [2] was less than 100 nM.

For the compound `CC(C)(C)OC(=O)N[C@H]1CCCCC/C=C\[C@@H]2C[C@@]2(C(=O)NS(=O)(=O)C2CC2)NC(=O)[C@@H]2C[C@@H](OC(=O)c3ccc(F)cc3)CN2C1=O` [Compound 29, 18-(4-fluorobenzoyloxy)-14-tert-butoxycarbonylamino-4-cyclopropylsulfonylaminocarbonyl-2,15-dioxo-3,16-diazatricyclo-[14.3.0.0^4,6]-nonadec-7-ene], the melting point fell in the range of 154 to 156 °C. Besides, the 50% effective concentration (EC50) in series [1] is less than 100 nM. The IC50 in series [2] is less than 100 nM.

`CC(C)(C)OC(=O)N[C@H]1CCCCC/C=C\[C@@H]2C[C@@]2(C(=O)NS(=O)(=O)C2CC2)NC(=O)[C@@H]2C[C@@H](OC(=O)c3cccnc3)CN2C1=O` [Compound 30, 18-(nicotinoyloxy)-14-tert-butoxycarbonylamino-4-cyclopropylsulfonylaminocarbonyl-2,15-dioxo-3,16-diazatricyclo-[14.3.0.0^4,6]-nonadec-7-ene] returned a melting point of 157 to 159 °C. In addition, the EC50 in series [1] was more than 1000 nM. The IC50 in series [2] is less than 100 nM.

Regarding `COC(=O)c1ccc(C(=O)O[C@@H]2C[C@H]3C(=O)N[C@]4(C(=O)NS(=O)(=O)C5CC5)C[C@H]4/C=C\CCCCC[C@H](NC(=O)OC(C)(C)C)C(=O)N3C2)cc1` [Compound 31], the melting point was in the range of 154 to 156 °C. Besides, the EC50 in series [1] is less than 100 nM. For the same compound, in series [2], the IC50 was less than 100 nM.

As to `CC(C)(C)OC(=O)N[C@H]1CCCCC/C=C\[C@@H]2C[C@@]2(C(=O)NS(=O)(=O)C2CC2)NC(=O)[C@@H]2C[C@@H](OC(=O)c3ccc(-n4cccn4)cc3)CN2C1=O` [Compound 32, 18-(4-[1-pyrazolyl]benzoyloxy)-14-tert-butoxycarbonylamino-4-cyclopropylsulfonylaminocarbonyl-2,15-dioxo-3,16-diazatricyclo-[14.3.0.0^4,6]-nonadec-7-ene], the melting point lay in the range of 167 to 169 °C. For the same compound, in series [1], the 50% effective concentration (EC50) is less than 100 nM. Also, the concentration for half-maximal inhibition (IC50) in series [2] is less than 100 nM.

In turn, `CC(C)(C)OC(=O)N[C@H]1CCCCC/C=C\[C@@H]2C[C@@]2(C(=O)NS(=O)(=O)C2CC2)NC(=O)[C@@H]2C[C@@H](OC(=O)c3cccc(C#N)c3)CN2C1=O` [Compound 33, 18-(3-cyanobenzoyloxy)-14-tert-butoxycarbonylamino-4-cyclopropylsulfonylaminocarbonyl-2,15-dioxo-3,16-diazatricyclo-[14.3.0.0^4,6]-nonadec-7-ene] gave a melting point of 151 to 153 °C. In addition, the EC50 in series [1] lay within 100 to 1000 nM. The IC50 in series [2] was less than 100 nM.

In turn, `Cc1cc(C(=O)O[C@@H]2C[C@H]3C(=O)N[C@]4(C(=O)NS(=O)(=O)C5CC5)C[C@H]4/C=C\CCCCC[C@H](NC(=O)OC(C)(C)C)C(=O)N3C2)no1` [Compound 34, 18-(5-methylisoxazole-3-carbonyloxy)-14-tert-butoxycarbonylamino-4-cyclopropylsulfonylaminocarbonyl-2,15-dioxo-3,16-diazatricyclo-[14.3.0.0^4,6]-nonadec-7-ene] displayed a melting point of 157 to 159 °C. Further, in series [1], the EC50 was more than 1000 nM. Further, the IC50 in series [2] is less than 100 nM.

As for `Cc1cc(C(=O)O[C@@H]2C[C@H]3C(=O)N[C@]4(C(=O)NS(=O)(=O)C5CC5)C[C@H]4/C=C\CCCCC[C@H](NC(=O)OC(C)(C)C)C(=O)N3C2)n(C)n1` [Compound 35], the melting point lay within 149 to 151 °C. The EC50 in series [1] is 100 to 1000 nM. In addition, the IC50 in series [2] is less than 100 nM.

Compound `CC(C)(C)OC(=O)N[C@H]1CCCOC/C=C\[C@@H]2C[C@@]2(C(=O)NS(=O)(=O)C2CC2)NC(=O)[C@@H]2C[C@@H](OC(=O)NC3CCCCC3)CN2C1=O` [Compound 36, 18-(cyclohexylaminocarbonyloxy)-14-tert-butoxycarbonylamino-4-cyclopropylsulfonylaminocarbonyl-2,15-dioxo-3,16-diaza-10-oxatricyclo-[14.3.0.0^4,6]-nonadec-7-ene] gave a melting point of 156 to 158 °C. Also, the EC50 in series [1] was more than 1000 nM. Moreover, the IC50 in series [2] is 100 to 1000 nM.
